Experiments:
(+)bicuculline = assay: Anticonvulsant test against (+)bicuculline; assay type: in vivo, mice; conditions: Mus musculus, read-out: ED50 BIC
Procedure: (§1) The anticonvulsant tests are similar to that described above. […] The number of animals with tonic and/or clonic convulsions was recorded. In the maximal electroshock test, 50 mA of current at 60 Hz was delivered through corneal electrodes for 200 msec to induce tonic seizure. The ability of compounds to abolish the tonic component was defined as the endpoint. General CNS depression potential was determined by a rotorod test 10 minutes after the injection of compounds where the number of mice staying on a rotating (6 rpm) rod for 1 minute in one of the three trials was determined. […] Table 7. Anticonvulsant Activity of Exemplified Neuroactive Steroids and those of Selected Clinically Useful Anticonvulsants in Mice

strychnine = assay: Anticonvulsant test against strychnine; assay type: in vivo, mice; conditions: Mus musculus, read-out: ED50 STR
Procedure: as §1

tonic seizure = assay: Maximal electroshock test; assay type: in vivo; conditions: Mus musculus, ip, steroids i.p., mice
Procedure: as §1

Glucocorticoid Receptors = target: T1, Glucocorticoid Receptors (Rattus norvegicus, UniProt P06536); assay: Inhibition of 3H-dexamethasone binding, brain cytosol; design: species or system rats; dose or concentration left out as unconfirmed; conditions: read-out: % of Inhibition
T1 construct: from tissue; host or cells: rat brain cytosol
T1 sequence (P06536 1-795): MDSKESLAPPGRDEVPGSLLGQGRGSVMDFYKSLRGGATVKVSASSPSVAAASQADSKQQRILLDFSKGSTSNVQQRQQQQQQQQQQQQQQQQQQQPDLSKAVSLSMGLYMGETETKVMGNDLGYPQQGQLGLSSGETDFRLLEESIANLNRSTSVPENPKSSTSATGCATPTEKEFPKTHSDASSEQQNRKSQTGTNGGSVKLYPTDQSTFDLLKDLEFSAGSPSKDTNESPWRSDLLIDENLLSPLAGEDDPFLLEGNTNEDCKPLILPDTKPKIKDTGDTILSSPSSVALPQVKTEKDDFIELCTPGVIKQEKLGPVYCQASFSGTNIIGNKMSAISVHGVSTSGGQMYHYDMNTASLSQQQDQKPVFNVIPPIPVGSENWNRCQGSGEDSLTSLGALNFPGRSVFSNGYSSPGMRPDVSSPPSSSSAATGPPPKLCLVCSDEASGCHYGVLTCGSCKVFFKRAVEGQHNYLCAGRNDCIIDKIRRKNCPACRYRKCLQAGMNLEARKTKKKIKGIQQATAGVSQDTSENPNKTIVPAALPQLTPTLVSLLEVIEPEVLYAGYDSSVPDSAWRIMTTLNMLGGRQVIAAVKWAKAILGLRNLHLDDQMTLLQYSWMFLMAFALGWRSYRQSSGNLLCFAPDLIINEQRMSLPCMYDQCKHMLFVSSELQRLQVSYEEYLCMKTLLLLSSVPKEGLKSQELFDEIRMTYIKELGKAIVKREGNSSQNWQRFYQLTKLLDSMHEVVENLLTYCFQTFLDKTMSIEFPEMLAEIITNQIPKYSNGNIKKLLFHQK
Procedure: Various hormonal activities of representative neuroactive steroids were further studied through testing their potential estrogenic, mineralocorticoid and glucocorticoid activities. These activities were analyzed by monitoring the ability of the compounds to inhibit binding of the steroid hormones to their respective hormone receptors.
For Table 4, brain cytosol fractions were prepared as for Table 3, and the compounds were incubated with 3 nM of ^3H-dexamethasone (the specific ligand for the glucocorticoid receptor).

[1] = system: metrazol induced convulsions; assay: animal or person; assay type: in vivo, mice; conditions: Mus musculus; metrazol 85 mg/kg s.c., steroids i.p., mice
[2] = system: Bovine Uteral Progesterone Receptors; assay: Inhibition of 3H-progesterone binding, uterus cytosol; conditions: competitor 10^-6M; 3H-progesterone 0.15 nM
In short: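 Rat uterus cytosol was incubated with 0.15 nM ^3H-progesterone plus test compounds. Values are percent inhibition of specific binding versus a compound-free control incubation.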

`C[C@]12CC[C@@H](O)C[C@@H]1CC[C@@H]1[C@@H]2CC[C@]2(C)[C@@H](C(=O)CO)CC[C@@H]12` [3α,21-dihydroxy-5α-pregnan-20-one] was tested. Which ED50 ((+)bicuculline) did it give?
Its ED50 is 17.8 mg/kg.

What about the ED50 (strychnine) of the same molecule?
Its ED50 is > 300 mg/kg.

And the ED50 (tonic seizure)?
Its ED50 is 26.7 mg/kg.

What about the inhibition (Glucocorticoid Receptors) of the same molecule?
Its inhibition is 29.5%.

What about the ED50 [1] of the same molecule?
The ED50 was 8.1 mg/kg.

What about the “% of Inhibition” value [2] of the same molecule?
Its value is 13%.

`CC(=O)[C@H]1CC[C@H]2[C@@H]3CC[C@H]4C[C@H](O)CC[C@]4(C)[C@H]3CC[C@]12C` [3α-Hydroxy-5α-pregnan-20-one, 3α-hydroxy-5α-pregnan-20-one] was tested. Which ED50 ((+)bicuculline) did it give?
The ED50 was 12.3 mg/kg.

And the ED50 (strychnine)?
Its ED50 is > 300 mg/kg.

What about the ED50 (tonic seizure) of the same molecule?
Its ED50 is 28.6 mg/kg.

What about the inhibition (Glucocorticoid Receptors) of the same molecule?
Its inhibition is 8.7%.

What about the ED50 [1] of the same molecule?
Its ED50 is 4.9 mg/kg.

And the “% of Inhibition” value [2]?
Its value is 14%.
